Patent publication US20160108039A1, “TRIAZOLOPYRIDINES AS THROMBIN INHIBITORS FOR THE TREATMENT OF THROMBOEMBOLIC DISEASES” (BAYER PHARMA AKTIENGESELLSCHAFT, priority 2013, published 2016)

Key:
thrombin [1] = molecular target: T1, thrombin (Homo sapiens, UniProt P00734); assay: Measurement of the thrombin inhibition in buffer; type: biochemical; details: human thrombin 0.06 nmol/l in Tris buffer pH 7.4, 22° C., substrate Boc-Asp(OBzl)-Pro-Arg-AMC; in some cases means of individual determinations
Procedure: To determine the thrombin inhibition of the substances listed above, a biochemical test system is constructed in which the conversion of a thrombin substrate is used for determining the enzymatic activity of human thrombin. Here, thrombin cleaves aminomethylcoumarin, which is measured fluorescently, from the peptic substrate. The determinations are carried out in microtitre plates.
Substances to be tested are dissolved in various concentrations in dimethyl sulphoxide and incubated for 15 min with human thrombin (0.06 nmol/l dissolved in 50 mmol/l of Tris buffer [C,C,C-tris(hydroxymethyl)aminomethane], 100 mmol/l of sodium chloride, 0.1% BSA [bovine serum albumin], pH 7.4) at 22° C. The substrate (5 μmol/l Boc-Asp(OBzl)-Pro-Arg-AMC from Bachem) is then added. After 30 min of incubation, the sample is excited at a wavelength of 360 nm and the emission is measured at 460 nm. The measured emissions of the test mixtures with test substance are compared to the control mixtures without test substance (only dimethyl sulphoxide instead of test substance in dimethyl sulphoxide) and IC50 values are calculated from the concentration/activity relationships. Representative activity data from this test are given in Table 1 below (in some cases as means of individual determinations): […]

thrombin [2] = molecular target: T1, thrombin; assay: Thrombin-inhibitory activity in plasma samples (ecarin-activated); type: biochemical; details: citrate plasma, ecarin activation, fluorogenic thrombin substrate; read at about 70% of maximum signal (about 12 min); in some cases means
Procedure: To determine the inhibition of thrombin in plasma samples, plasma prothrombinase is activated by ecarin. Thrombin activity and/or its inhibition by potential inhibitors is/are then measured fluorescently by addition of a substrate.
The substances to be tested are dissolved in various concentrations in dimethyl sulphoxide and diluted with water. In white 96-well flat-bottomed plates, 20 μl of substance dilution are mixed with 20 μl of ecarin solution (ecarin reagent, from Sigma E-0504, final concentration 20 mU per reaction) in Ca buffer (200 mM Hepes+560 mM sodium chloride+10 mM calcium chloride+0.4% PEG) or with 20 μl of Ca buffer (as unstimulated control). Furthermore, 20 μl of fluorogenic thrombin substrate (from Bachem 1-1120, final concentration 50 μmol/l) and 20 μl of citrate plasma (from Octapharma) are added, and the mixture is homogenized well. The plate is measured in a SpectraFluorplus Reader using a 360 nm excitation filter and a 465 nm emission filter every minute over 20 minutes. […] Representative activity data from this test are given in Table 2 below (in some cases as means of individual determinations): […]

Row | Structure (SMILES) | IC50 (thrombin [1]) | IC50 (thrombin [2])
1 | COc1cc(C(=O)N2CC(C)(C)OCC2(C)CO)cn2nc(NCc3cccc(Cl)c3)nc12 (single isomer, unassigned) [Example 9, {2-[(3-Chlorobenzyl)amino]-8-methoxy[1,2,4]triazolo[1,5-a]pyridin-6-yl}[5-(hydroxymethyl)-2,2,5-trimethylmorpholin-4-yl]methanone] | 55 nM | 79 nM
2 | COc1cc(C(=O)N2CC(C)(C)OCC2(C)CO)cn2nc(NCc3cccc(Cl)c3)nc12 (single isomer, unassigned) [Example 10, {2-[(3-Chlorobenzyl)amino]-8-methoxy[1,2,4]triazolo[1,5-a]pyridin-6-yl}[5-(hydroxymethyl)-2,2,5-trimethylmorpholin-4-yl]methanone] | 39 nM | 41 nM
3 | COc1cc(C(=O)N2CC(C)(C)OCC2CF)cn2nc(NCc3cccc(Cl)c3)nc12 (single isomer, unassigned) [Example 14, {2-[(3-Chlorobenzyl)amino]-8-methoxy[1,2,4]triazolo[1,5-a]pyridin-6-yl}[5-(fluoromethyl)-2,2-dimethylmorpholin-4-yl]methanone] | 24 nM | 57 nM
4 | COc1cc(C(=O)N2CC(C)OCC2CCO)cn2nc(NCc3cccc(Cl)c3)nc12 (single isomer, unassigned) [Example 16, {2-[(3-Chlorobenzyl)amino]-8-methoxy[1,2,4]triazolo[1,5-a]pyridin-6-yl}[5-(2-hydroxyethyl)-2-methylmorpholin-4-yl]methanone] | 52 nM | 77 nM
5 | COc1cc(C(=O)N2CC(C)OCC2CCO)cn2nc(NCc3cccc(Cl)c3)nc12 (single isomer, unassigned) [Example 17, {2-[(3-Chlorobenzyl)amino]-8-methoxy[1,2,4]triazolo[1,5-a]pyridin-6-yl}[5-(2-hydroxyethyl)-2-methylmorpholin-4-yl]methanone] | 95 nM | 119 nM
6 | COc1cc(C(=O)N2CC(C)OCC2CCO)cn2nc(NC(CF)c3cccc(Cl)c3)nc12 (single isomer, unassigned) [Example 18, (2-{[1-(3-Chlorophenyl)-2-fluoroethyl]amino}-8-methoxy[1,2,4]triazolo[1,5-a]pyridin-6-yl) [5-(2-hydroxyethyl)-2-methylmorpholin-4-yl]methanone] | 27 nM | 15 nM
7 | COc1cc(C(=O)N2CC(C)OCC2(C)C)cn2nc(NCc3cccc(Cl)c3)nc12 (single isomer, unassigned) [Example 27] | 62 nM | 56 nM
8 | COc1cc(C(=O)N2CC(C)OCC2(C)CO)cn2nc(NCc3cccc(Cl)c3)nc12 (single isomer, unassigned) [Example 29, {2-[(3-Chlorobenzyl)amino]-8-methoxy[1,2,4]triazolo[1,5-a]pyridin-6-yl}[5-(hydroxymethyl)-2,5-dimethylmorpholin-4-yl]methanone] | 54 nM | 67 nM
9 | COc1cc(C(=O)N2CC(C)OCC2(C)CO)cn2nc(NCc3cccc(Cl)c3)nc12 (single isomer, unassigned) [Example 30, {2-[(3-Chlorobenzyl)amino]-8-methoxy[1,2,4]triazolo[1,5-a]pyridin-6-yl}[5-(hydroxymethyl)-2,5-dimethylmorpholin-4-yl]methanone] | 45 nM | 51 nM
10 | COc1cc(C(=O)N2CC(C)(CCO)OCC2(C)C)cn2nc(NCc3cccc(Cl)c3)nc12 (single isomer, unassigned) [Example 33, {2-[(3-Chlorobenzyl)amino]-8-methoxy[1,2,4]triazolo[1,5-a]pyridin-6-yl}[2-(2-hydroxyethyl)-2,5,5-trimethylmorpholin-4-yl]methanone] | 4.5 nM | 11 nM
11 | COc1cc(C(=O)N2CC(C)(CC(C)O)OCC2(C)C)cn2nc(NCc3cccc(Cl)c3)nc12 (single isomer, unassigned) [Example 34, {2-[(3-Chlorobenzyl)amino]-8-methoxy[1,2,4]triazolo[1,5-a]pyridin-6-yl}[2-(2-hydroxypropyl)-2,5,5-trimethylmorpholin-4-yl]methanone] | 3.9 nM | 19 nM

Other lines, results leading:

Row | IC50 (thrombin [1]) | IC50 (thrombin [2]) | Structure (SMILES)
12 | 11 nM | 10 nM | COc1cc(C(=O)N2CC(C)OCC2CCO)cn2nc(NC(CF)c3cccc(Cl)c3)nc12 (single isomer, unassigned) [Example 19, (2-{[1-(3-Chlorophenyl)-2-fluoroethyl]amino}-8-methoxy[1,2,4]triazolo[1,5-a]pyridin-6-yl) [5-(2-hydroxyethyl)-2-methylmorpholin-4-yl]methanone]
13 | 35 nM | 70 nM | COc1cc(C(=O)N2CC(C)OCC23CC(O)C3)cn2nc(NCc3cccc(Cl)c3)nc12 (single isomer, unassigned) [Example 20, {2-[(3-Chlorobenzyl)amino]-8-methoxy[1,2,4]triazolo[1,5-a]pyridin-6-yl}[(cis)-2-hydroxy-7-methyl-8-oxa-5-azaspiro[3.5]non-5-yl]methanone]
14 | 43 nM | 67 nM | COc1cc(C(=O)N2CC(C)OCC23CC(O)C3)cn2nc(NCc3cccc(Cl)c3)nc12 (single isomer, unassigned) [Example 21, {2-[(3-Chlorobenzyl)amino]-8-methoxy[1,2,4]triazolo[1,5-a]pyridin-6-yl}[(trans)-2-hydroxy-7-methyl-8-oxa-5-azaspiro[3.5]non-5-yl]methanone]
15 | 26 nM | 86 nM | COc1cc(C(=O)N2CC(C)OCC23CC(O)C3)cn2nc(NC(CF)c3cccc(Cl)c3)nc12 (single isomer, unassigned) [Example 22, (2-{[1-(3-Chlorophenyl)-2-fluoroethyl]amino}-8-methoxy[1,2,4]triazolo[1,5-a]pyridin-6-yl)[(cis)-2-hydroxy-7-methyl-8-oxa-5-azaspiro[3.5]non-5-yl]methanone]
16 | 29 nM | 34 nM | COc1cc(C(=O)N2CC(C)OCC23CC(O)C3)cn2nc(NC(CF)c3cccc(Cl)c3)nc12 (single isomer, unassigned) [Example 23, (2-{[1-(3-Chlorophenyl)-2-fluoroethyl]amino}-8-methoxy[1,2,4]triazolo[1,5-a]pyridin-6-yl)[(cis)-2-hydroxy-7-methyl-8-oxa-5-azaspiro[3.5]non-5-yl]methanone]
17 | 9.9 nM | 19 nM | COc1cc(C(=O)N2CC(C)OCC23CC(O)C3)cn2nc(NC(CF)c3cccc(Cl)c3)nc12 (single isomer, unassigned) [Example 24, (2-{[1-(3-Chlorophenyl)-2-fluoroethyl]amino}-8-methoxy[1,2,4]triazolo[1,5-a]pyridin-6-yl) [(trans)-2-hydroxy-7-methyl-8-oxa-5-azaspiro[3.5]non-5-yl]methanone]
18 | 28 nM | 55 nM | COc1cc(C(=O)N2CC(C)OCC23CC(O)C3)cn2nc(NC(CF)c3cccc(Cl)c3)nc12 (single isomer, unassigned) [Example 25, (2-{[1-(3-Chlorophenyl)-2-fluoroethyl]amino}-8-methoxy[1,2,4]triazolo[1,5-a]pyridin-6-yl) [(trans)-2-hydroxy-7-methyl-8-oxa-5-azaspiro[3.5]non-5-yl]methanone]
